{
  "source": "patent US20250034264A1",
  "about": "“REGULATING T CELL IMMUNE RESPONSE THROUGH IGF-I RECEPTOR (IGF-1R)” (The Regents of the University of Michigan, priority 2021, published 2025)",
  "type_in_all_cases": "cell-based, human",
  "key": {"fibrocytes [1]": {"test_system": "fibrocytes", "assay": "Gene promoter activity assay (Secrete-Pair Dual Luminescence)", "conditions": "50 μg/mL", "description": "Cell transfections, gene promoter assays and siRNA knockdown studies The nucleofection method was utilized to transfect fibrocytes with the U-023 program of the Nucleofector II instrument (Lonza, Walkersville, MD) and the Amaxa human CD34 cell nucleofection kit (cat. no. VPA-1003; Lonza). To assess human gene promoter activities, appropriate fragments described in earlier reports were selected and cloned for MHC II, CD80, CD86, and PD-L1. Confluent fibrocyte monolayers were treated with human Isotype IgG or teprotumumab (50 μg/mL) for 3 d. Cells were transfected with the following target gene promoter fragment sequences supplied by GeneCopoeia (Rockville, MD): MHC-2 (cat. #HPRM49526), −100 to +1429 nt; CD80 (cat. #HPRM45966), −300 to +1350 nt; CD86 (cat. #HPRM46979), −231 to +1272 nt; PD-L1 (cat. #HPRM40139), −237 to +1282 nt; and negative control clone PG04 (cat. #NEG-PG04). After 3-4 d, cells were incubated without or with bTSH (5 mU/mL) for 2 h. Monolayers were harvested and promoter activities measured using the Secrete-Pair Dual Luminescence Assay Kit (cat. #LF033, GeneCopoeia Rockville, MD) according to manufacturer's instructions in an FB12 tube luminometer (Zylux, Huntsville, AL). Values were normalized to internal controls and each experiment was performed at least three times. […]"}, "fibrocytes [2]": {"test_system": "fibrocytes", "assay": "IL-23p19 and IL-12p35 mRNA expression, real-time PCR", "conditions": "teprotumumab 50 μg/ml or linsitinib 1 μM, 7-9 d", "description": "FIGS. 10A-10F are graphs showing the divergent effect of teprotumumab on bTSH induced IL-23p19 and IL-12p35 expression on fibrocytes and GD-OF. Rinsed fibrocyte and GD-OF monolayers were incubated with or without 50 μg/ml teprotumumab (FIGS. 10A and 10B) or 1 μM linsitinib (FIGS. 10C and 10D) and human Isotype IgG for 7-9 d, and bTSH (5 mIU/mL) was added for 6 h. Harvested RNA was reverse transcribed and isolated cDNA was subjected to quantitative real-time PCR for IL-23p19 and IL-12p35 mRNA levels. Values were normalized to their respective GAPDH levels and are expressed as the mean±SD of three independent determinations. Experiments were repeated three times. FIGS. 10E and 10F are graphs showing the levels of IL-23 protein when rinsed fibrocyte and GD-OF monolayers were incubated with or without 50 μg/ml teprotumumab. **, p<0.01; ***. P<0.001.\n(§1) Real-time PCR Confluent fibrocyte and GD-OF cultures were incubated with bTSH (5 mIU/mL), teprotumumab (50 μg/mL) or linsitinib (1 μM) for the time intervals indicated, washed with PBS and RNA was extracted with the Aurum Total RNA Mini Kit (cat. #732-6820, Bio-Rad, Hercules, CA). Cellular RNA (2 μg) was reverse transcribed using QuantiTect Reverse Transcription kit (cat. #205314, Qiagen (Germantown, MD) and real-time PCR was performed using an Applied Biosystems instrument with QuantiTect SYBR Green PCR kit (cat. no. 204143; Qiagen, Frederick, MD). Primer sequences were as follows."}, "fibrocytes [3]": {"test_system": "fibrocytes", "assay": "IL-10, icIL-1RA, sIL-1RA expression (PCR, ELISA)", "description": "(§2) FIGS. 11A-11F are graphs showing teprotumumab attenuates bTSH induced IL-10 while enhancing icIL-1RA and sIL-1RA expression in fibrocytes and GD-OF. Fibrocyte cultures were treated with teprotumumab (50 μg/ml), rhSlit2 (50 ng/ml) or human Isotype IgG for 7-9 d, with bTSH (5 mIU/mL) for final 6 h. RNA was extracted and reverse transcribed. Isolated cDNA was subjected to quantitative real-time PCR for IL-10 (FIGS. 11A and 11B), icIL-1RA (FIGS. 11C and 11D). Media and cellular proteins were collected and subjected to specific ELISAs for icIL-1RA and sIL-1RA (FIGS. 11E, 11F, 11G, and 11H). PCR values were normalized to their respective GAPDH levels. icIL-1RA and sIL-1RA protein levels were normalized to cellular protein levels. Data are expressed as the mean±SD of three independent determinations. Experiments were repeated three times. **, p<0.01; ***. P<0.001.\nIL-12, IL-23, IL-10, HA and BAFF ELISAs. Confluent cultures were treated with nothing or teprotumumab (50 μg/mL) for 5 d, without or with bTSH (5 mU/mL) for the intervals indicated or 72 h. Media and rinsed cell layers were homogenized in 0.1M NaCl and assayed for HA content using an ELISA kit (K-1200) from Echelon Biosciences Inc. (Salt Lake City, UT) according to manufacturer's instructions. A BAFF specific ELISA, purchased from R & D systems, was used in accordance with the manufacturer's instructions.\nas §1"}, "GD-OF": {"test_system": "GD-OF", "assay": "icIL-1RA and sIL-1RA protein (ELISA)", "description": "as §2"}, "fibrocytes [4]": {"test_system": "fibrocytes", "assay": "AIRE and thyroid autoantigen (Tg, TPO, NIS) mRNA expression", "conditions": "50 μg/mL 7-9 days; bTSH 5 mIU/mL 6 h; vs isotype control mAb", "description": "FIGS. 9A-9D are graphs showing the effect of teprotumumab on bovine thyrotropin or thyroid-stimulating hormone (bTSH) induced thyroid specific genes thyroglobulin (Tg), sodium iodide symporter (NIS), thyroperoxidase (TPO), and autoimmune regulator protein (AIRE) in fibrocytes. Confluent fibrocyte cultures were treated with or without teprotumumab (50 μg/ml) and human Isotype IgG for 7-9 d, followed by bTSH (5 mIU/mL) for 6 h. Monolayers were washed with PBS and RNA was extracted and reverse transcribed. Harvested cDNA was subjected to quantitative real-time PCR for AIRE (FIG. 9A), Tg (FIG. 9B), TPO (FIG. 9C), and NIS (FIG. 9D) mRNA levels. Values were normalized to their respective GAPDH levels and are expressed as the mean f SD of three independent determinations. Experiments were repeated three times. *, P<0.05; **, p<0.01.\nas §1"}, "[5]": {"conditions": "teprotumumab 50 μg/ml or rhSlit2 50 ng/ml, 7-9 d"}},
  "data": [
    {"substance": "teprotumumab", "values": [
      {"measurement": "activities of MHC II, CD80, CD86, PD-L1 gene promoter fragments", "setting": "fibrocytes [1]; 3 days", "result": "downregulated"},
      {"measurement": "bTSH induction of each gene promoter fragment", "setting": "fibrocytes [1]; bTSH 2 h", "result": "attenuated"},
      {"measurement": "IL-12p35 expression, basal and induction by bTSH", "setting": "fibrocytes [2]", "result": "enhances"},
      {"measurement": "IL-23p19 expression, basal and induction by bTSH", "setting": "fibrocytes [2]", "result": "inhibited"},
      {"measurement": "effects on icIL-1RA protein levels", "setting": "fibrocytes [3]; ELISA, fibrocytes", "result": "minimal"},
      {"measurement": "IL-10 mRNA, basal and bTSH-provoked expression", "setting": "fibrocytes [3]; [5]", "result": "downregulated"},
      {"measurement": "basal and bTSH-dependent icIL-1RA and sIL-1RA mRNA levels", "setting": "fibrocytes [3]; [5]", "result": "upregulated"},
      {"measurement": "icIL-1RA protein levels", "setting": "GD-OF", "result": "upregulated"},
      {"measurement": "sIL-1RA protein levels", "setting": "GD-OF", "result": "upregulated"},
      {"measurement": "AIRE basal expression and induction by bTSH", "setting": "fibrocytes [4]", "result": "inhibited"},
      {"measurement": "NIS basal expression and induction by bTSH", "setting": "fibrocytes [4]", "result": "inhibited"},
      {"measurement": "TPO basal expression and induction by bTSH", "setting": "fibrocytes [4]", "result": "inhibited"},
      {"measurement": "Tg basal expression and induction by bTSH", "setting": "fibrocytes [4]", "result": "inhibited"}
    ]}
  ]
}
